Experimental data reported in ChEMBL document CHEMBL1201862, “PubChem BioAssay data set” (2004).
One block for each compound: values may come before it. Active and inactive are the calls of the source.

Key:
Type in all cases: functional
[1] = biological target: Sphingosine 1-phosphate receptor 2 (Homo sapiens, UniProt O95136); test: Late-stage fluorescence-based dose-response cell-based counterscreen assay to identify agonists of the Sphingosine 1-Phosphate Receptor 3 (S1P3): Sphingosine 1-Phosphate Receptor 2 (S1P2) agonist assay.
[2] = Late-stage assay provider results from the probe development effort to identify agonists of the Sphingosine 1-Phosphate Receptor 3 (S1P3): luminescence-based cell-based dose response counterscreen assay to determine cytotoxicity of agonist compounds.
[3] = biological target: Sphingosine 1-phosphate receptor 4 (Homo sapiens, UniProt O95977); test: Late-stage fluorescence-based dose-response cell-based counterscreen assay to identify agonists of the Sphingosine 1-Phosphate Receptor 3 (S1P3): Sphingosine 1-Phosphate Receptor 4 (S1P4) agonist assay.
[4] = biological target: Sphingosine 1-phosphate receptor 5 (Homo sapiens, UniProt Q9H228); test: Late-stage fluorescence-based dose-response cell-based counterscreen assay to identify agonists of the Sphingosine 1-Phosphate Receptor 3 (S1P3): Sphingosine 1-Phosphate Receptor 5 (S1P5) agonist assay.
[5] = biological target: Mitogen-activated protein kinase 14 (Homo sapiens, UniProt Q16539);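 note: part of a kinome-wide panel, MAPK14 entry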
[6] = biological target: Dual specificity protein kinase CLK2 (Homo sapiens, UniProt P49760)
Chain of Dual specificity protein kinase CLK2 (P49760 whole entry): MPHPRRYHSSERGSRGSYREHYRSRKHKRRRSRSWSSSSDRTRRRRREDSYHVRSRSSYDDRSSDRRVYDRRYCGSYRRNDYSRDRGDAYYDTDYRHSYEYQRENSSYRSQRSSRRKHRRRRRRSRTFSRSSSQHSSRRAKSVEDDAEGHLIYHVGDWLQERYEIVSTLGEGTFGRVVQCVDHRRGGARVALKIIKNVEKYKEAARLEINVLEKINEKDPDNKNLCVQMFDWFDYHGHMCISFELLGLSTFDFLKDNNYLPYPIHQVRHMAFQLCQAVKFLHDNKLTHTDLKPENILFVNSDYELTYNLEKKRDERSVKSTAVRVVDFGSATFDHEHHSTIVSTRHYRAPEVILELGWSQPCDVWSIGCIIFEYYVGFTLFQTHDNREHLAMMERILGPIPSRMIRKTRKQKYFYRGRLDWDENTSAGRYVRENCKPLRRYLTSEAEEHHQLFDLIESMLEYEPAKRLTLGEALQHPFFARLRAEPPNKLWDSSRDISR

Activated CDC42 kinase 1 = Activated CDC42 kinase 1 (Homo sapiens, UniProt Q07912); test: Navigating the Kinome. Panel member name: ACK1
[7] = biological target: Serine/threonine-protein kinase TAO1 (Homo sapiens, UniProt Q7L7X3)
[8] = biological target: Tyrosine-protein kinase Fyn (Homo sapiens, UniProt P06241)
Chain of Tyrosine-protein kinase Fyn (P06241 whole entry): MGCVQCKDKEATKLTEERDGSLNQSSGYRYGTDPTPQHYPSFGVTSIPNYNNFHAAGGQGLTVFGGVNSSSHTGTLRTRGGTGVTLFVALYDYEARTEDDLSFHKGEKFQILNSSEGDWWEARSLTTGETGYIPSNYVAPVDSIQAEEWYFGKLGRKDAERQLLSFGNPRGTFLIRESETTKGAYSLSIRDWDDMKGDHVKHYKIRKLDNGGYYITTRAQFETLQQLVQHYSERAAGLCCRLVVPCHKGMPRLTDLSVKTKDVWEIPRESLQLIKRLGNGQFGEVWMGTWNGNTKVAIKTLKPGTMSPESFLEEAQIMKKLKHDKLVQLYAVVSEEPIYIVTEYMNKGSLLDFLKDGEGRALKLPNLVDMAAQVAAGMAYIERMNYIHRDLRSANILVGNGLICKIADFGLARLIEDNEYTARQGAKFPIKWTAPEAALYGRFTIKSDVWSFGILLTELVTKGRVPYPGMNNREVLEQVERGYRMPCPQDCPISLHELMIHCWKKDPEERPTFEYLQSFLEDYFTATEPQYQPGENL

[9] = biological target: Glycogen synthase kinase-3 alpha (Homo sapiens, UniProt P49840);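 note: GSK3A result taken from a broad kinome-wide kinase panel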
[10] = biological target: Death-associated protein kinase 3 (Homo sapiens, UniProt O43293);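 note: measured as one member of a kinome-wide profiling panel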
[11] = biological target: Fibroblast growth factor receptor 1 (Homo sapiens, UniProt P11362)
[12] = biological target: Mitogen-activated protein kinase 8 (Homo sapiens, UniProt P45983);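 note: value comes from one member of a kinome-wide kinase profiling panel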
Chain of Mitogen-activated protein kinase 8 (P45983 whole entry): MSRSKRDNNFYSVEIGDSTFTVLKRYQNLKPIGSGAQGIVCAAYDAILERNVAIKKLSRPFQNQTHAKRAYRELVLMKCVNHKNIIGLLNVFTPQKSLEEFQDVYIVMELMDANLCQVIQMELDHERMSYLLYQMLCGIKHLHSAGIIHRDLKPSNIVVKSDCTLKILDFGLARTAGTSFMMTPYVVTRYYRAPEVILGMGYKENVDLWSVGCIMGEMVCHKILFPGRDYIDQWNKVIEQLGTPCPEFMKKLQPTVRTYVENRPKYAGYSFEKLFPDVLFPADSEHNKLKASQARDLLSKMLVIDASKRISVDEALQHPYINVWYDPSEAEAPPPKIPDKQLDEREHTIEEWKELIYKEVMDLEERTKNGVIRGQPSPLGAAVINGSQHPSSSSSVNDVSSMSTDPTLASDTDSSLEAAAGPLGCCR

[13] = biological target: T1, Tyrosine-protein kinase JAK3 (Homo sapiens, UniProt P52333)
T1 sequence (P52333 whole entry): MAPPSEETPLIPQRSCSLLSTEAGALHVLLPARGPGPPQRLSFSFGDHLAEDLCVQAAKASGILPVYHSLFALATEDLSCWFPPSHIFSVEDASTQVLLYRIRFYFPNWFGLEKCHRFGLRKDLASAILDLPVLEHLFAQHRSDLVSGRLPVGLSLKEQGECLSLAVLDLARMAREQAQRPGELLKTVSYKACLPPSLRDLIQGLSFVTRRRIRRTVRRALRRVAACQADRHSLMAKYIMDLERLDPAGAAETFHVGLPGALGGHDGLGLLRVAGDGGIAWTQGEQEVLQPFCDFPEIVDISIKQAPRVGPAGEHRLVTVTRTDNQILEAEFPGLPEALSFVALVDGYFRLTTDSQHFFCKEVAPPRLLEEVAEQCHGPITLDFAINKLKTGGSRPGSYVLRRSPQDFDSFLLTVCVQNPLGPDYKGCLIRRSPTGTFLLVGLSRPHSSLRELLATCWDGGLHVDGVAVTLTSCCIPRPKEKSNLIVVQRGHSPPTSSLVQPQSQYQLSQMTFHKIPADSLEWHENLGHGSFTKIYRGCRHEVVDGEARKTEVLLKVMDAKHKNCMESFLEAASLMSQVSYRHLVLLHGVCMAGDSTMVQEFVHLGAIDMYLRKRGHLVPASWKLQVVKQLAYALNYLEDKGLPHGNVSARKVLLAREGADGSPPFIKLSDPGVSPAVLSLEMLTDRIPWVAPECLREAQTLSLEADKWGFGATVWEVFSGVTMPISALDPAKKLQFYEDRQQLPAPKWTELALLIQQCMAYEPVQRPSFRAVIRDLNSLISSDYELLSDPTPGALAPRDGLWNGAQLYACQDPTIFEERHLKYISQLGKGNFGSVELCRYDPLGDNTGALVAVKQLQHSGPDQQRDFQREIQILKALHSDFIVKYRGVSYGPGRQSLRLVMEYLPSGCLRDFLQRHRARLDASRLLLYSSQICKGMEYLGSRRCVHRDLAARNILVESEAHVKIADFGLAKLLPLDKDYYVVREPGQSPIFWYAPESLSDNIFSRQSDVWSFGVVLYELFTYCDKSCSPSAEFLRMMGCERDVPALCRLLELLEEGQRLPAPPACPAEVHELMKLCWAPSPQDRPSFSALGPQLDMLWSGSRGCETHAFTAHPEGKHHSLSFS

Aurora kinase B = Aurora kinase B (Homo sapiens, UniProt Q96GD4)
Chain of Aurora kinase B (Q96GD4 whole entry): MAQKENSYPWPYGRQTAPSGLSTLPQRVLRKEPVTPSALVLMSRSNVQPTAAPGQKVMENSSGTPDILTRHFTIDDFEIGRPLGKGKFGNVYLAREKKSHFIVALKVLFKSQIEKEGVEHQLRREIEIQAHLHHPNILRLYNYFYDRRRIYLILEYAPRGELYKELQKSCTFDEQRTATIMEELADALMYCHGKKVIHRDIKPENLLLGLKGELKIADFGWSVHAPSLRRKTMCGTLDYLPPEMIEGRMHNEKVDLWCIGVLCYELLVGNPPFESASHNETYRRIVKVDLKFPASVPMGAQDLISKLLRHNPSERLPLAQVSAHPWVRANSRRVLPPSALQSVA

Activin receptor type-1 = Activin receptor type-1 (Homo sapiens, UniProt Q04771); test: Navigating the Kinome. Panel member name: ACVR1
Focal adhesion kinase 1 = Focal adhesion kinase 1 (Homo sapiens, UniProt Q05397);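 note: measured as one member of a kinome panel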
Chain of Focal adhesion kinase 1 (Q05397 whole entry): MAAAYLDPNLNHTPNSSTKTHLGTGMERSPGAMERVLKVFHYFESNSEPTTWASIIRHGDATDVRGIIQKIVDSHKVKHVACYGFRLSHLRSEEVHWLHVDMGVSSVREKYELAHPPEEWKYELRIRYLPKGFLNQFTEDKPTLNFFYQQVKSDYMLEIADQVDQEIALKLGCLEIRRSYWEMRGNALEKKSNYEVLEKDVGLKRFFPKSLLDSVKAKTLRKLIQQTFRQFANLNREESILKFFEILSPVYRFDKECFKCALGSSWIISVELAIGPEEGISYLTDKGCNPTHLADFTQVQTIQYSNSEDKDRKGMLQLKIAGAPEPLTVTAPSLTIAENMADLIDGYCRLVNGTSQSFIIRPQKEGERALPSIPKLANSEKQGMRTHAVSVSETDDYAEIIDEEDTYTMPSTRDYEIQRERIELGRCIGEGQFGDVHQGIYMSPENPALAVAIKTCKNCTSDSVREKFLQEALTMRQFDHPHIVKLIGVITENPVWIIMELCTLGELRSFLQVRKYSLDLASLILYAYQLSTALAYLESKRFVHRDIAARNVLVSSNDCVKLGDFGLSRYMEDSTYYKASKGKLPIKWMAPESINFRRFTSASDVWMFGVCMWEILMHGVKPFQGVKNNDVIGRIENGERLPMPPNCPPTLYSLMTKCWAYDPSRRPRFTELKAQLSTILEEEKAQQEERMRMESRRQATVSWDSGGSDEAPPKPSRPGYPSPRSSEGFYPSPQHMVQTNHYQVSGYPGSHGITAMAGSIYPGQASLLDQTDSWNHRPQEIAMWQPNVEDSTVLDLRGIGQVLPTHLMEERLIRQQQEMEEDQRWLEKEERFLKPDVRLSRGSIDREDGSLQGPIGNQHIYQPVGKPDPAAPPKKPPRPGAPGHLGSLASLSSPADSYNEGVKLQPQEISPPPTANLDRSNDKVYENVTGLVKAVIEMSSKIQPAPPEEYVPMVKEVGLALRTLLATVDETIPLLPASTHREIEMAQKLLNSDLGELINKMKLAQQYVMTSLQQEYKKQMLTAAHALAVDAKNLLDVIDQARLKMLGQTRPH

[14] = biological target: Mitogen-activated protein kinase kinase kinase kinase 4 (Homo sapiens, UniProt O95819)
Chain of Mitogen-activated protein kinase kinase kinase kinase 4 (O95819 whole entry): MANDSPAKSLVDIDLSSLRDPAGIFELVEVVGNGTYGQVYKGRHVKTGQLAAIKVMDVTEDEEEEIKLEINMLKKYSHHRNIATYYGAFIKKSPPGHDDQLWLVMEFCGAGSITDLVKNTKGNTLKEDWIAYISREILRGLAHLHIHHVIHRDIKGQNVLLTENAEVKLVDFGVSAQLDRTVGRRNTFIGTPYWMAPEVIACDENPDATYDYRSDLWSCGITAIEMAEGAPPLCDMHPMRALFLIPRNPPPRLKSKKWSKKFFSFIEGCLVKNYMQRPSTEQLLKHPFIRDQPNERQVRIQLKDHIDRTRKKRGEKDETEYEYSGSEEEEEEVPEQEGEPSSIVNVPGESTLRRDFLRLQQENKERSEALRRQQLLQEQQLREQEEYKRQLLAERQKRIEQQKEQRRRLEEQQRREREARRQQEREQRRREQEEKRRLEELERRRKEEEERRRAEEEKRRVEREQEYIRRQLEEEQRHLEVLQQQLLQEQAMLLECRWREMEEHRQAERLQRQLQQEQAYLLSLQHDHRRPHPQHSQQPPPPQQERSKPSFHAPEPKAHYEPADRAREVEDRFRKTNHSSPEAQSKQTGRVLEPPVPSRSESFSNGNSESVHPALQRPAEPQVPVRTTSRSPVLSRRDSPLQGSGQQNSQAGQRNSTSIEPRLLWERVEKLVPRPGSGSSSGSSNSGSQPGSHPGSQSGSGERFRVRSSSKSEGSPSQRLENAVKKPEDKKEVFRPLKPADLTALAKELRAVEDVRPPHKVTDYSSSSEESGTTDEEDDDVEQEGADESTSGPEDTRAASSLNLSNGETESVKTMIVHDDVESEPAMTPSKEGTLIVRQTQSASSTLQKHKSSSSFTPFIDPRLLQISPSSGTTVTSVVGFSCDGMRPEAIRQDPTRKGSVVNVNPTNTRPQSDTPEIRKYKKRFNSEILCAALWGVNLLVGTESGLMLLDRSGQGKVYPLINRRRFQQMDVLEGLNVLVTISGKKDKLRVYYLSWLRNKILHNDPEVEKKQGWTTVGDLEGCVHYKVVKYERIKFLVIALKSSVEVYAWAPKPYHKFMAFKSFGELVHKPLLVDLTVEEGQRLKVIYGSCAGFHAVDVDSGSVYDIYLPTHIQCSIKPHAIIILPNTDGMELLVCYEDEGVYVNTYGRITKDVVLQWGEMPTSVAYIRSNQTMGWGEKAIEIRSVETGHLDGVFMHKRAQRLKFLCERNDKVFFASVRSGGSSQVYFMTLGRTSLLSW

[15] = biological target: Tyrosine-protein kinase BTK (Homo sapiens, UniProt Q06187)
[16] = biological target: Serine/threonine-protein kinase D3 (Homo sapiens, UniProt O94806);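 note: determined within a kinase panel screen, with PRKCN as the panel member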
[17] = biological target: Calcium/calmodulin-dependent protein kinase type II subunit alpha (Homo sapiens, UniProt Q9UQM7); test: Navigating the Kinome. Panel member name: CAMK2A
[18] = biological target: Cyclin-dependent kinase 8 (Homo sapiens, UniProt P49336); test: Navigating the Kinome. Panel member name: CDK8
Chain of Cyclin-dependent kinase 8 (P49336 whole entry): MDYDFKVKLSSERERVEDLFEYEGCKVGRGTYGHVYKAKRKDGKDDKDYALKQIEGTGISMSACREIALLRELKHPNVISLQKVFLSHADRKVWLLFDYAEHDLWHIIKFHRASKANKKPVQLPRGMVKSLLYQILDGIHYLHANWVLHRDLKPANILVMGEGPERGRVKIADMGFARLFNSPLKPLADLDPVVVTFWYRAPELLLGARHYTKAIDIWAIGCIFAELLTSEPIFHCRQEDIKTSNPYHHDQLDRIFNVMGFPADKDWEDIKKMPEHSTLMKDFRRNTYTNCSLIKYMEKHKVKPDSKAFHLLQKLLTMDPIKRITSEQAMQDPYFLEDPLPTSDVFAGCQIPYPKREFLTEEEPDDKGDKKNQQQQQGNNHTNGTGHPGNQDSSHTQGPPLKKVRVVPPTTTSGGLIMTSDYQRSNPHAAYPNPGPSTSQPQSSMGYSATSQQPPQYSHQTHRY

[19] = biological target: Cyclin-dependent kinase 7 (Homo sapiens, UniProt P50613);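 note: value comes from a kinome-wide kinase profiling panel in which CDK7 is one member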
[20] = biological target: Tyrosine-protein kinase Lck (Homo sapiens, UniProt P06239);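 note: lck was assayed as one member of a kinase panel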
[21] = biological target: G protein-coupled receptor kinase 5 (Homo sapiens, UniProt P34947); test: Navigating the Kinome. Panel member name: GPRK5
[22] = biological target: Casein kinase I isoform alpha (Homo sapiens, UniProt P48729)
[23] = biological target: T2, Serine/threonine-protein kinase Chk1 (Homo sapiens, UniProt O14757);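 note: measured as one member of a kinome-wide kinase profiling panel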
T2 sequence (O14757 whole entry): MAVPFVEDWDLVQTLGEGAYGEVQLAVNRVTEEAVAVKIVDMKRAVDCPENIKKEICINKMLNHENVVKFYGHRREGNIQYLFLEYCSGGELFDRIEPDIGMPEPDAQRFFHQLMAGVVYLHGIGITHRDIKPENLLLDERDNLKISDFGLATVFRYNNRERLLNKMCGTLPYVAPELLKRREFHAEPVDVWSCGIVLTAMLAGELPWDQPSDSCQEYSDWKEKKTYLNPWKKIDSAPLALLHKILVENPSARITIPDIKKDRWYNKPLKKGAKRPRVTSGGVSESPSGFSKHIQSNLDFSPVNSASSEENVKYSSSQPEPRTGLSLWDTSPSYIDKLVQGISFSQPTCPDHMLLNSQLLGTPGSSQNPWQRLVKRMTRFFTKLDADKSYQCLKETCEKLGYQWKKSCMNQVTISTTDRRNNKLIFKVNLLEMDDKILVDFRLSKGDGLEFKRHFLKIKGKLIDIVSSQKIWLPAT

[24] = biological target: Serine/threonine-protein kinase pim-1 (Homo sapiens, UniProt P11309)
Chain of Serine/threonine-protein kinase pim-1 (P11309 whole entry): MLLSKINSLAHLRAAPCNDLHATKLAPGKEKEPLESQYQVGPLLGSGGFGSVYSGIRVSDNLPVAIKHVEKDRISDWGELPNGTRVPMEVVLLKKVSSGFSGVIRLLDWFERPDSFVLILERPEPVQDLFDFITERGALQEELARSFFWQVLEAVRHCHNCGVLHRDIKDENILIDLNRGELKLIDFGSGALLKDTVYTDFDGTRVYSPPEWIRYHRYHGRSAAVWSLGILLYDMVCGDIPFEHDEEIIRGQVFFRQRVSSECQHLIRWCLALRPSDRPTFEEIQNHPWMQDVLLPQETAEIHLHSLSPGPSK

[25] = biological target: ALK tyrosine kinase receptor (Homo sapiens, UniProt Q9UM73);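 note: ALK tested as one member of a kinase panel screen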
[26] = biological target: Serine/threonine-protein kinase PAK 4 (Homo sapiens, UniProt O96013);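 note: value obtained within a kinome profiling panel in which PAK4 was one of the panel members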
[27] = biological target: Calcium/calmodulin-dependent protein kinase type II subunit beta (Homo sapiens, UniProt Q13554)
[28] = biological target: Calcium/calmodulin-dependent protein kinase type II subunit delta (Homo sapiens, UniProt Q13557)
[29] = biological target: Interleukin-1 receptor-associated kinase 1 (Homo sapiens, UniProt P51617);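 note: IRAK1 tested as one member of a kinome panel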
[30] = biological target: Serine/threonine-protein kinase pim-3 (Homo sapiens, UniProt Q86V86);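 note: value obtained as one member of a broad kinase panel profiling effort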
[31] = biological target: Calcium/calmodulin-dependent protein kinase type II subunit gamma (Homo sapiens, UniProt Q13555)
[32] = biological target: DNA dC->dU-editing enzyme APOBEC-3G (Homo sapiens, UniProt Q9HC16); test: SAR analysis of small molecule inhibitors of APOBEC3G DNA Deaminase via a fluorescence-based single-stranded DNA deaminase assay - Set 2.; conditions: read-out: IC50_Mean
[33] = biological target: DNA dC->dU-editing enzyme APOBEC-3A (Homo sapiens, UniProt P31941); test: SAR analysis of small molecule inhibitors of APOBEC3A DNA Deaminase via a fluorescence-based single-stranded DNA deaminase assay - Set 2.; conditions: read-out: IC50_Mean
[34] = biological target: Neuropeptides B/W receptor type 1 (Homo sapiens, UniProt P48145); test: human NPBW1 receptor blockade, IC50 – cell-based, fluorescence, dose response, set 5, late-stage follow-up (AID 588566)
[35] = biological target: Melanin-concentrating hormone receptor 1 (Homo sapiens, UniProt Q99705); test: Late-stage fluorescence-based counterscreen for antagonists of the G-protein coupled receptor 7 (GPR7): cell-based dose response assay to identify antagonists of the melanin-concentrating hormone receptor 1 (MCHR1) Set 5.
Aurora kinase A = Aurora kinase A (Homo sapiens, UniProt O14965);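 note: value from the Navigating the Kinome kinase panel profiling, panel entry STK6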
[36] = loss of viability in HepG2 cells – cell-based, CellTiter-Glo, cherry-picked, cytotoxicity control for Shn3 inhibitor project, dose response (AID 624134)
[37] = viability of uninfected HEp-2 cells – cell-based, HTS, cytotoxicity control for RSV inhibitor project, dose response (AID 2410); conditions: human respiratory syncytial virus
[38] = biological target: Serine/threonine-protein kinase pim-2 (Homo sapiens, UniProt Q9P1W9);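 note: value comes from a broad kinase panel profiling study in which PIM2 was one of the panel members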
[39] = biological target: Tyrosine-protein kinase SYK (Homo sapiens, UniProt P43405)
[40] = biological target: Mitogen-activated protein kinase 13 (Homo sapiens, UniProt O15264)
[41] = biological target: Testis-specific serine/threonine-protein kinase 2 (Homo sapiens, UniProt Q96PF2);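 note: part of the Navigating the Kinome panel, target entry STK22B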
[42] = non-specific 3'UTR reporter inhibition in Clone20-Shn3RL – cell-based, Renilla luciferase, cherry-picked, counter-screen for Shn3 inhibitor project, dose response (AID 624133)
[43] = biological target: Testis-specific serine/threonine-protein kinase 1 (Homo sapiens, UniProt Q9BXA7)
[44] = biological target: cAMP-dependent protein kinase catalytic subunit alpha (Homo sapiens, UniProt P17612)
[45] = biological target: Tyrosine-protein kinase ITK/TSK (Homo sapiens, UniProt Q08881);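 note: affinity for ITK measured as one member of a broad kinase panel profiling binding across the kinome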
[46] = biological target: Maternal embryonic leucine zipper kinase (Homo sapiens, UniProt Q14680)
[47] = biological target: Tyrosine-protein kinase Fer (Homo sapiens, UniProt P16591);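 note: FER tested as one member of a kinome panel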
[48] = biological target: STE20-like serine/threonine-protein kinase (Homo sapiens, UniProt Q9H2G2)
[49] = reduction of Shn3 3'UTR-driven luciferase in osteoblasts – cell-based, Clone20 osteoblasts, firefly luciferase, cherry-picked, dose response (AID 624132);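 note: firefly luciferase luminescence from reporter carrying the Shn3 3'UTR in osteoblasts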
[50] = biological target: cAMP-dependent protein kinase catalytic subunit PRKX (Homo sapiens, UniProt P51817)

SMILES: O=C(c1cc(C2CC2)on1)N(C1CCCCC1)C1CCCCC1
EC50 [1]: > 50 µM (inactive)
CC50 [2]: > 10 µM (inactive)
EC50 [3]: > 50 µM (inactive)
EC50 [4]: > 25 µM (inactive)

SMILES: CCOC(=O)Cc1nc2c(N)cccc2[nH]1
Ki [5]: > 3.98 µM (inactive)
Ki [6]: > 3.98 µM (inactive)
Ki (Activated CDC42 kinase 1): > 3.98 µM (inactive)
Ki [7]: > 6.31 µM (inactive)
Ki [8]: > 6.31 µM (inactive)
Ki [9]: > 3.98 µM (inactive)
Ki [10]: > 5.01 µM (inactive)
Ki [11]: > 3.98 µM (inactive)
Ki [12]: > 5.01 µM (inactive)
Ki [13]: > 5.01 µM (inactive)
Ki (Aurora kinase B): > 3.98 µM (inactive)
Ki (Activin receptor type-1): > 3.98 µM (inactive)
Ki (Focal adhesion kinase 1): > 6.31 µM (inactive)
Ki [14]: > 5.01 µM (inactive)
Ki [15]: > 6.31 µM (inactive)
Ki [16]: > 3.98 µM (inactive)
Ki [17]: > 3.98 µM (inactive)
Ki [18]: > 3.98 µM (inactive)
Ki [19]: > 3.98 µM (inactive)
Ki [20]: > 6.31 µM (inactive)
Ki [21]: > 3.98 µM (inactive)
Ki [22]: > 3.98 µM (inactive)
Ki [23]: 0.398 µM (active)
Ki [24]: > 6.31 µM (inactive)
Ki [25]: > 6.31 µM (inactive)
Ki [26]: > 5.01 µM (inactive)

SMILES: CSc1nnc2n(CCC(C)C)c(=O)c3ccccc3n12
IC50 [32]: > 99 µM (inactive)
IC50 [33]: > 99 µM (inactive)

SMILES: Cc1ccc(-c2nn(C(C)(C)C)c3ncnc(N)c23)cc1
Ki (Aurora kinase A): > 1.58 µM (inactive)
AC50 [36]: > 70 µM (inactive)
CC50 [37]: 9.91 µM (active)
Ki [13]: > 1.58 µM (inactive)
Ki [38]: > 1.58 µM (inactive)
Ki (Focal adhesion kinase 1): > 1.58 µM (inactive)
Ki [39]: > 1.58 µM (inactive)
Ki [40]: > 7.94 µM (inactive)
Ki [41]: > 1.58 µM (inactive)
AC50 [42]: 1.97 µM (active)
Ki [43]: > 1.58 µM (inactive)
Ki [44]: 1.58 µM (active)
Ki [45]: > 1.58 µM (inactive)
Ki [46]: > 1.58 µM (inactive)
Ki [47]: > 1.58 µM (inactive)
Ki [48]: 1.58 µM (active)
AC50 [49]: 5.89 µM (active)
Ki [50]: > 1.58 µM (inactive)

The next lines start with the values.

Ki [27]: 5.01 µM (active)
Ki [28]: 5.01 µM (active)
Ki [29]: 7.94 µM (active)
Ki [30]: 3.16 µM (active)
Ki [31]: 3.98 µM (active)
Ki [24]: 1.26 µM (active)
SMILES: CCOC(=O)c1cn(-c2ccc(O)cc2C)c2cc(-c3ccccc3)ccc2c1=O

IC50 [34]: 3.19 µM (active)
IC50 [35]: > 20 µM (inactive)
SMILES: Cn1ccc2ccc(Oc3c(Cl)cnn(Cc4cccc5ccccc45)c3=O)cc21
